The results in this text go back to patent US8053603B2, “Tetralone-based monoamine reuptake inhibitors” (Sunovion Pharmaceuticals Inc., priority 2006, dated 2011).

Common to all, as to type: cell-based
Assay [1] deals with T1, recombinant human norepinephrine transporter (Homo sapiens, UniProt P23975).
T1 construct: expressed in transfected cells; host or cells: HEK293 or MDCK
In words: Norepinephrine functional uptake assay for human reuptake transporter. The conditions noted are these: [3H]norepinephrine uptake, HEK293 or MDCK cells expressing human norepinephrine transporter; read-out: Human IC50 (nM) NET. On the procedure: Norepinephrine Functional Uptake Assay for Human Reuptake Transporter
The cells were plated before the assay. Test compound and/or vehicle was preincubated with cells in modified HEPES buffer pH 7.1 or pH 7.4 for 20 minutes at 18 to 25° C. . […] After the cells were washed to remove [^3H]norepinephrine not internalized, the cells were lysed, and the amount of tritium in the cell lysate was measured using a liquid scintillation counter to determine [^3H]norepinephrine uptake. Non-specific binding of tritium was measured in a control reaction containing 10 μM imipramine (or 10 μM nisoxetine), and was subtracted from the counts for assays to correct for non-specific binding of tritium. Reduction of [^3H]norepinephrine uptake by 50 percent or more (≧50%) relative to an uninhibited control reaction indicates significant inhibitory activity.

The target in assay [2] is T2, recombinant human serotonin transporter (Homo sapiens, UniProt P31645).
T2 construct: expressed in transfected cells; host or cells: HEK-293
T2 sequence (P31645 whole entry): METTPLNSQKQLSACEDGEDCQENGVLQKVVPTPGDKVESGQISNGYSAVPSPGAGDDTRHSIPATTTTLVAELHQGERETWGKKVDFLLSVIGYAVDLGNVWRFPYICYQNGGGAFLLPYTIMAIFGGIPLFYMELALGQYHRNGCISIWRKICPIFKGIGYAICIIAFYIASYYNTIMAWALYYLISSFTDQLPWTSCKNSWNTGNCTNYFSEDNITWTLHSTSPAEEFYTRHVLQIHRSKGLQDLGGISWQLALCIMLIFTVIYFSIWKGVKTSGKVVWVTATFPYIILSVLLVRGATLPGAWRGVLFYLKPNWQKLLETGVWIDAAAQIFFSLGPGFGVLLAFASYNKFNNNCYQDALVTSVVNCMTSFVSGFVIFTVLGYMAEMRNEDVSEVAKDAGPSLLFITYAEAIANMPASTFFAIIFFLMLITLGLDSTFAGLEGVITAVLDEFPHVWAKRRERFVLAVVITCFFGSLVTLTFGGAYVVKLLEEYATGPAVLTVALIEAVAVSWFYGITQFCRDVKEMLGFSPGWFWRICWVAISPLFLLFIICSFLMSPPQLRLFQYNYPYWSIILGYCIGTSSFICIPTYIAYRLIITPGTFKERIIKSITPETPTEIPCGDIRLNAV
Kind of assay: Serotonin functional uptake assay for human reuptake transporter. The settings on record: [3H]serotonin uptake, HEK-293 cells expressing human serotonin transporter; read-out: Human IC50 (nM) SERT. As for the experimental part:
Serotonin Functional Uptake Assay for Human Reuptake Transporter
HEK-293 cells expressing human serotonin transporter were plated before the assay. […] Cells with internalized [^3H]serotonin were washed and the amount of tritium taken into cells is counted using a liquid scintillation counter to determine [^3H]serotonin uptake.

Assay [3] addresses T3, recombinant human dopamine transporter (Homo sapiens, UniProt Q01959).
T3 construct: expressed in transfected cells; host or cells: CHO-K1 or HEK293
In words: Dopamine functional uptake assay for human reuptake transporter. The settings on record: [3H]dopamine uptake, CHO-K1 or HEK293 cells expressing human dopamine transporter; read-out: Human IC50 (nM) DAT. On the procedure:
Dopamine Functional Uptake Assay for Human Reuptake Transporter
Either CHO-K1 or HEK293 cells expressing human recombinant dopamine transporter were plated before the assay. Test compound and/or vehicle was preincubated with cells in modified HEPES buffer pH 7.1 or pH 7.4 for 20 minutes at 18 to 25° C. and 50 nM [^3H]dopamine was then added for an additional timed incubation period (10 to 30 minutes). After washing the cells to remove [^3H]dopamine not internalized, the cells were lysed, and the amount of tritium in the lysate was measured using a liquid scintillation counter to determine [^3H]dopamine uptake. Non-specific binding of tritium was measured in a control reaction containing 10 μM nomifensine, and was subtracted from the counts for assays to correct for non-specific binding of tritium. Reduction of [^3H]dopamine uptake by 50 percent or more (≧50%) relative to an uninhibited control reaction indicates significant inhibitory activity.

As usually defined, the IC50 is the point on the concentration scale where inhibition reaches its midpoint.

T3 sequence (Q01959 whole entry): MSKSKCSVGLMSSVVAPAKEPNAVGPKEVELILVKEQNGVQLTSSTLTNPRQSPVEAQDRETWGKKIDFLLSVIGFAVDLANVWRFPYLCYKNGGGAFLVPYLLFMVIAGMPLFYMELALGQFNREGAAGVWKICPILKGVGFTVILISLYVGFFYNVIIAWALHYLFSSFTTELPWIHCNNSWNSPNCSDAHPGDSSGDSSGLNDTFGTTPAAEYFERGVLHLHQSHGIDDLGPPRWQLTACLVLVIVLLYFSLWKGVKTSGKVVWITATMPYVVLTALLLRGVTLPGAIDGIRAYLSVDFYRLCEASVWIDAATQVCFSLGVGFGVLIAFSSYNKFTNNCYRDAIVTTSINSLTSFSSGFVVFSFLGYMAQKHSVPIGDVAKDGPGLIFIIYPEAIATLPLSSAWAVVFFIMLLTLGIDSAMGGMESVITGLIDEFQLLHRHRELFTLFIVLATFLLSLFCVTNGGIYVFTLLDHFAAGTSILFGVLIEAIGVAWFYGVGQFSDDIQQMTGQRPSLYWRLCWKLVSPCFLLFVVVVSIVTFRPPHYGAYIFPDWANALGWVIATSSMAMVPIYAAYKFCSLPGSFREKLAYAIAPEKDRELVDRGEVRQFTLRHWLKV
T1 sequence (P23975 whole entry): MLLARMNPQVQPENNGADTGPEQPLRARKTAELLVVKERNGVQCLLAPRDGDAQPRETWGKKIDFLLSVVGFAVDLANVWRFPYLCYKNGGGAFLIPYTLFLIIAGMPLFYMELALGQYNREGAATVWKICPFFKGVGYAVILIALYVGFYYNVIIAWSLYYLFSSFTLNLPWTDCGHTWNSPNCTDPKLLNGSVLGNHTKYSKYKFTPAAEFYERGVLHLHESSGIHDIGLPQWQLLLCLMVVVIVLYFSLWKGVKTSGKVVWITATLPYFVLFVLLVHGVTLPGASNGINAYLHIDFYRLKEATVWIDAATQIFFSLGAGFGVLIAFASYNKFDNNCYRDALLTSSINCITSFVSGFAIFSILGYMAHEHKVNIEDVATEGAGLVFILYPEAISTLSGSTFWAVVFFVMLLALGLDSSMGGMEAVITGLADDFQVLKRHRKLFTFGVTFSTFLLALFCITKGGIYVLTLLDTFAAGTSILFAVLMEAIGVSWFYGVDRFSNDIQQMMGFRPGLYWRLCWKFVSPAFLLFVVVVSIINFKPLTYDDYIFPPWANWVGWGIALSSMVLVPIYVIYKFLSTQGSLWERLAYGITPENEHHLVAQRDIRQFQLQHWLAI

For `CN[C@H]1Cc2ccc(OC)cc2[C@@H](c2ccc(Cl)c(Cl)c2)C1` (single isomer, unassigned) [Compound 32a.2, 4-(3,4-dichlorophenyl)-6-methoxy-N-methyl-1,2,3,4-tetrahydronaphthalen-2-amine], the IC50 in assay [1] is 467 nM; in assay [2] it was 130 nM; in assay [3] it was 415 nM.

On to `CN[C@H]1Cc2ccc(OC)cc2[C@@H](c2ccc(Cl)c(Cl)c2)C1` (single isomer, unassigned) [Compound 32a.4, 4-(3,4-dichlorophenyl)-6-methoxy-N-methyl-1,2,3,4-tetrahydronaphthalen-2-amine], for which the figures for the IC50 in assay [1], in assay [2] and in assay [3] were 786 nM, 958 nM and 1680 nM, respectively.

On to `CN[C@@H]1Cc2cccc(OC)c2[C@H](c2ccc(Cl)c(Cl)c2)C1` (single isomer, unassigned) [Compound 32b.1, 4-(3,4-dichlorophenyl)-5-methoxy-N-methyl-1,2,3,4-tetrahydronaphthalen-2-amine], for which the results for the half-maximal inhibitory concentration (IC50) in assay [1], in assay [2] and in assay [3] were 2330 nM, 359 nM and 83 nM, respectively.

On to `CN[C@@H]1Cc2cccc(OC)c2[C@H](c2ccc(Cl)c(Cl)c2)C1` (single isomer, unassigned) [Compound 32b.2, 4-(3,4-dichlorophenyl)-5-methoxy-N-methyl-1,2,3,4-tetrahydronaphthalen-2-amine], for which the IC50 in assay [1] worked out at 2320 nM; in assay [2] it was 307 nM; in assay [3] it was 496 nM.

Turning to `CN[C@H]1Cc2cc(OC)ccc2[C@@H](c2ccc(Cl)c(Cl)c2)C1` (single isomer, unassigned) [Compound 32c.1, 4-(3,4-dichlorophenyl)-7-methoxy-N-methyl-1,2,3,4-tetrahydronaphthalen-2-amine], the figures for the IC50 in assay [1], in assay [2] and in assay [3] were 571 nM, 68 nM and 18 nM, respectively.

In the case of `CN[C@H]1Cc2cc(OC)ccc2[C@@H](c2ccc(Cl)c(Cl)c2)C1` (single isomer, unassigned) [Compound 32c.2, 4-(3,4-dichlorophenyl)-7-methoxy-N-methyl-1,2,3,4-tetrahydronaphthalen-2-amine], the figures for the IC50 in assay [1], in assay [2] and in assay [3] were 112 nM, 29 nM and 109 nM, respectively.

Consider `CN[C@H]1Cc2cc(OC)ccc2[C@@H](c2ccc(Cl)c(Cl)c2)C1` (single isomer, unassigned) [Compound 32c.4, 4-(3,4-dichlorophenyl)-7-methoxy-N-methyl-1,2,3,4-tetrahydronaphthalen-2-amine], for which the results for the IC50 in assay [1], in assay [2] and in assay [3] were 111 nM, 209 nM and 78 nM, respectively.

As for `COc1ccc2c(c1)C(c1ccc(Cl)c(Cl)c1)CC(N(C)C)C2` (single isomer, unassigned) [Compound 33a.1, 4-(3,4-dichlorophenyl)-6-methoxy-N,N-dimethyl-2,3,4-tetrahydronaphthalen-2-amine], the results for the IC50 in assay [1], in assay [2] and in assay [3] were 2310 nM, 475 nM and 781 nM, respectively.

As for `COc1ccc2c(c1)C(c1ccc(Cl)c(Cl)c1)CC(N(C)C)C2` (single isomer, unassigned) [Compound 33a.2, 4-(3,4-dichlorophenyl)-6-methoxy-N,N-dimethyl-2,3,4-tetrahydronaphthalen-2-amine], the figures for the IC50 in assay [1], in assay [2] and in assay [3] were 2260 nM, 156 nM and 396 nM, respectively.

Regarding `COc1ccc2c(c1)C(c1ccc(Cl)c(Cl)c1)CC(N(C)C)C2` (single isomer, unassigned) [Compound 33a.3, 4-(3,4-dichlorophenyl)-6-methoxy-N,N-dimethyl-2,3,4-tetrahydronaphthalen-2-amine], the IC50 in assay [1] was 1170 nM; in assay [2], 207 nM; in assay [3], 2290 nM.

`COc1ccc2c(c1)C(c1ccc(Cl)c(Cl)c1)CC(N(C)C)C2` (single isomer, unassigned) [Compound 33a.4, 4-(3,4-dichlorophenyl)-6-methoxy-N,N-dimethyl-2,3,4-tetrahydronaphthalen-2-amine]: the IC50 in assay [1] stood at 1700 nM; in assay [2] it was 808 nM; in assay [3] it was 1410 nM.

Regarding `COc1ccc2c(c1)C[C@H](N(C)C)C[C@@H]2c1ccc(Cl)c(Cl)c1` (single isomer, unassigned) [Compound 33c.1, 4-(3,4-dichlorophenyl)-7-methoxy-N,N-dimethyl-1,2,3,4-tetrahydronaphthalen-2-amine], the IC50 stood at 943 nM in assay [1], 24 nM in assay [2] and 194 nM in assay [3].

Turning to `COc1ccc2c(c1)C[C@H](N(C)C)C[C@@H]2c1ccc(Cl)c(Cl)c1` (single isomer, unassigned) [Compound 33c.2, 4-(3,4-dichlorophenyl)-7-methoxy-N,N-dimethyl-1,2,3,4-tetrahydronaphthalen-2-amine], the IC50 in assay [1] was found to be 684 nM; in assay [2], 8 nM; in assay [3], 67 nM.

`COc1ccc2c(c1)C[C@H](N(C)C)C[C@@H]2c1ccc(Cl)c(Cl)c1` (single isomer, unassigned) [Compound 33c.3, 4-(3,4-dichlorophenyl)-7-methoxy-N,N-dimethyl-1,2,3,4-tetrahydronaphthalen-2-amine]: the IC50 was 906 nM in assay [1], 616 nM in assay [2] and 83 nM in assay [3].

For `COc1ccc2c(c1)C[C@H](N(C)C)C[C@@H]2c1ccc(Cl)c(Cl)c1` (single isomer, unassigned) [Compound 33c.4, 4-(3,4-dichlorophenyl)-7-methoxy-N,N-dimethyl-1,2,3,4-tetrahydronaphthalen-2-amine], the IC50 worked out at 1900 nM in assay [1], 92 nM in assay [2] and 224 nM in assay [3].

Consider `CN(C)[C@H]1CCc2ccccc2[C@H]1c1ccc(Cl)c(Cl)c1` (single isomer, unassigned) [Compound 37a, 1-(3,4-dichlorophenyl)-N,N-dimethyl-1,2,3,4-tetrahydronaphthalen-2-amine], for which the IC50 in assay [1] was determined as 2380 nM; in assay [2] it was 355 nM; in assay [3], 235 nM.

Take `CN(C)[C@H]1CCc2ccccc2[C@H]1c1ccc(Cl)c(Cl)c1` (single isomer, unassigned) [Compound 37b, 1-(3,4-dichlorophenyl)-N,N-dimethyl-1,2,3,4-tetrahydronaphthalen-2-amine]: the IC50 was 499 nM in assay [1], 742 nM in assay [2] and 106 nM in assay [3].

As for `CN(C)[C@H]1CCc2ccccc2[C@H]1c1ccc(Cl)c(Cl)c1` (single isomer, unassigned) [Compound 37c, 1-(3,4-dichlorophenyl)-N,N-dimethyl-1,2,3,4-tetrahydronaphthalen-2-amine], the IC50 in assay [1] came to 1190 nM; in assay [2], 70 nM; in assay [3], 284 nM.

Turning to `CN(C)[C@H]1CCc2ccccc2[C@H]1c1ccc(Cl)c(Cl)c1` (single isomer, unassigned) [Compound 37d, 1-(3,4-dichlorophenyl)-N,N-dimethyl-1,2,3,4-tetrahydronaphthalen-2-amine], the figures for the IC50 in assay [1], in assay [2] and in assay [3] were 1010 nM, 3150 nM and 36 nM, respectively.

As for `CNC1c2ccccc2CCC1c1ccc(Cl)c(Cl)c1` (single isomer, unassigned) [Compound 40a, 2-(3,4-dichlorophenyl)-N-methyl-1,2,3,4-tetrahydronaphthalen-l-amine], the figures for the IC50 in assay [1], in assay [2] and in assay [3] were greater than 10000 nM, 2470 nM and 3410 nM, respectively.

Consider `CNC1c2ccccc2CCC1c1ccc(Cl)c(Cl)c1` (single isomer, unassigned) [Compound 40b, 2-(3,4-dichlorophenyl)-N-methyl-1,2,3,4-tetrahydronaphthalen-l-amine], for which the IC50 in assay [1] is greater than 10000 nM; in assay [2], 7720 nM; in assay [3], 1790 nM.

For `CN(C)[C@@H]1c2ccccc2CC[C@@H]1c1ccc(Cl)c(Cl)c1` (single isomer, unassigned) [Compound 41a, cis-2-(3,4-dichlorophenyl)-N,N-dimethyl-1,2,3,4-tetrahydronaphthalen-1-amine], the figures for the IC50 in assay [1], in assay [2] and in assay [3] were greater than 10000 nM, 3170 nM and 2280 nM, respectively.

As to `CN(C)[C@@H]1c2ccccc2CC[C@@H]1c1ccc(Cl)c(Cl)c1` (single isomer, unassigned) [Compound 41b, cis-2-(3,4-dichlorophenyl)-N,N-dimethyl-1,2,3,4-tetrahydronaphthalen-1-amine], the IC50 in assay [1] was greater than 10000 nM; in assay [2], 9740 nM; in assay [3], 1120 nM.
